Test results from patent US9499467B2, “Ortho-fluoro substituted compounds for the treatment of metabolic diseases” (CALDAN THERAPEUTICS LIMITED, priority 2011, dated 2016).

Target: T1, GPR40 (Homo sapiens, UniProt O14842)
T1 construct: expressed in transfected cells
Experiment: Calcium mobilization in GPR40-transfected cells
Assay type: cell-based
Settings: calcium mobilization in GPR40-transfed cells
Description: The compounds were tested for their ability to mobilize calcium in GPR40-transfed cells as described by Christiansen et al. (J. Med. Chem. 2011, 54, 6691-6703).

T1 sequence (O14842 whole entry): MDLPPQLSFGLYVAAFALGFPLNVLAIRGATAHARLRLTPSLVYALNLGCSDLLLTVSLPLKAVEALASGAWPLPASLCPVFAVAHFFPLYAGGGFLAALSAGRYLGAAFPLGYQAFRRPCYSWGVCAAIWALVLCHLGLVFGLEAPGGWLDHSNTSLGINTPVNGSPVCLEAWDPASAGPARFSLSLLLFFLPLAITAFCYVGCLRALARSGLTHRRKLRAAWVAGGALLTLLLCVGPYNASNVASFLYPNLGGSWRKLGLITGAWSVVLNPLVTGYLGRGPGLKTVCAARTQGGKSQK

GPR40 activity (pEC50) | Compound
7.09 | C=C(C)C#Cc1ccc(CCC(=O)O)c(F)c1 [Example 2, 3-(2-Fluoro-4-(3-methylbut-3-en-1-yn-1-yl)phenyl)propanoic acid]
7.69 | C/C=C(/C)C#Cc1ccc(CCC(=O)O)c(F)c1 [Example 3, (Z)-3-(2-Fluoro-4-(3-methylpent-3-en-1-yn-1-yl)phenyl)propanoic acid]
7.43 | C/C=C(\C)C#Cc1ccc(CCC(=O)O)c(F)c1 [Example 4, (E)-3-(2-Fluoro-4-(3-methylpent-3-en-1-yn-1-yl)phenyl)propanoic acid]
7.48 | Cc1ccccc1C#Cc1ccc(CCC(=O)O)c(F)c1 [Example 5, 3-(2-Fluoro-4-(o-tolylethynyl)phenyl)propanoic acid]
7.77 | Cc1ccc(C#N)cc1C#Cc1ccc(CCC(=O)O)c(F)c1 [Example 7, 3-(4-((5-Cyano-2-methylphenyl)ethynyl)-2-fluorophenyl)propanoic acid]
5.84 | CS(=O)(=O)Cc1ccccc1C#Cc1ccc(CCC(=O)O)c(F)c1 [Example 8, 3-(2-Fluoro-4-((2-((methylsulfonyl)methyl)phenyl)ethynyl)phenyl)propanoic acid]
5.71 | CS(=O)(=O)Cc1cccc(C#Cc2ccc(CCC(=O)O)c(F)c2)c1 [Example 9, 3-(2-Fluoro-4-((3-((methylsulfonyl)methyl)phenyl)ethynyl)phenyl)propanoic acid]
6.85 | O=C(O)CCc1c(F)cc(C#Cc2ccccc2)cc1F [Example 10, 3-(2,6-Difluoro-4-(phenylethynyl)phenyl)propanoic acid]
6.84 | O=C(O)CCc1ccc(C#Cc2ccccc2)c(F)c1 [Example 11, 3-(3-Fluoro-4-(phenylethynyl)phenyl)propanoic acid]
6.37 | C/C(C#Cc1ccc(CCC(=O)O)c(F)c1)=C/CO [Example 12, (Z)-3-(2-Fluoro-4-(5-hydroxy-3-methylpent-3-en-1-yn-1-yl)phenyl)propanoic acid]
7.42 | O=C(O)CCc1ccc(C#Cc2cc(Cl)cc(Cl)c2)cc1F [Example 13, 3-(4-((3,5-Dichlorophenyl)ethynyl)-2-fluorophenyl)propanoic acid]
7.74 | O=C(O)CCc1ccc(C#Cc2cc(F)ccc2C(F)F)cc1F [Example 14, 3-(4-((2-(Difluoromethyl)-5-fluorophenyl)ethynyl)-2-fluorophenyl)propanoic acid]

Compound | GPR40 activity (pEC50)
O=C(O)CCc1ccc(C#Cc2ccccc2)cc1F [Example 1, 3-(2-Fluoro-4-(phenylethynyl)phenyl)propanoic acid] | 7.48
